Test results published in patent US10959984B2, “Methods for treating cancer with RORγ inhibitors” (THE REGENTS OF THE UNIVERSITY OF CALIFORNIA, priority 2015, dated 2021).
Entries after “also recorded” stand apart in the source; their conditions may differ.

Tests used:
[1] = test system: LNCaP cells; assay: Cell viability (Cell-Titer GLO), 4 days; assay type: cell-based; conditions: Homo sapiens, 96 h, treated for 4 days, read-out: IC50 (growth inhibition)
Protocol: (§1) For cell viability, cells were seeded in 96-well plates at 1500-2500 cells per well (optimum density for growth) in a total volume of 100 μl media. Serially diluted compounds in […] of media were added to the cells 12 hours later. After 4 days of incubation, Cell-Titer GLO reagents (Promega) were added and luminescence was measured on GLOMAX microplate luminometer (Promega), according to the manufacturer's instructions. All experimental points were set up as sextuplicate as biological replication and the entire experiments were repeated three times. The data are presented as percentage of viable cells with vehicle treated cells set as 100. The estimated in vitro IC50 values were calculated using GraphPad Prism 6 software.

[2] = test system: AR-negative PCa cells; assay: Prostate cancer cell growth and survival, AR-negative cells; assay type: cell-based, human
Protocol: as §1
For apoptosis, Terminal deoxynucleotidyl transferase-mediated dUTP nick end labeling (TUNEL) was performed by using in situ cell death detection kit (Roche) as previously described^56. The results are expressed as a percentage of apoptotic cell number/total cell number. Caspase-3/7 activity was measured using a luminescent caspase-Glo 3/7 assay kit (Promega Corporation, Madison, USA) following the manufacturer's instructions. For cell growth, cells were seeded in 6-well plates at 2×10^5 per well and treated as indicated. Total viable cell numbers were counted using a Coulter cell counter. For colony formation, 800 cells were seeded in a well of 6-well plates and cultured for 14 days with the medium changed every 3 days. When the cell clone grew visible, the medium was removed and the cells were fixed with […] formalin for 10 minutes. Then the plates were washed with PBS for two times and the cell colonies were stained with 0.2% crystal violet (in 10% formalin) for 15 minutes. The numbers of cell colonies were counted after washed 5 times by PBS. The above assays were performed in triplicates and the entire experiments were repeated three times.

[3] = test system: C4-2B, VCaP and 22Rv1 xenograft tumors; assay: Xenograft tumor growth, three AR-positive tumor models; assay type: in vivo, mice; conditions: 5 mg/kg, i.p., five times per week; including ENZ-resistant 22Rv1
Protocol: Four-week-old male SCID C.B17 mice (for C4-2B and VCaP) or BALB/c nu/nu athymic mice (for 22Rv11 and PC-3) were purchased from Harlan Inc. For establishing tumors, 2×10^6 cells were suspended in total of 100 μL PBS/Matrigel (1:1) and implanted subcutaneously into the dorsal flank on both sides of the mice. Animal group size of six or more was estimated to have a high statistic power, based on power calculation (http://www.biomath.info/power/) and previous studies involving the same xenograft models^34,68. When the tumor volume was approximately 80 mm^3, the mice were randomized and then treated intraperitoneally (i.p.) with 100 μl of either vehicle or RORγ antagonists SR2211, XY011/8k (in a formulation of 15% Cremophor EL, Calbiochem, 82.5% PBS, and 2.5% DMSO) for five times per week. Tumor growth was monitored by calipers with volume calculated using the equation: (π/6 (length×width2)). Body weight during the course of the study was also monitored. At the end of the studies mice were killed and tumors were dissected and weighed. Additionally, prostate, seminal vesicle, testis, kidney, heart, lung, liver, epididymal fat pad and spleen were harvested and weighed. To assess the effect of combining RORγ antagonists and ENZ on the growth of castrated-resistant VCaP xenografts (CRPC-VCaP), first, SCID C.B17 mice were injected with VCaP cells as above to establish the tumors. […]

[4] = test system: VCaP xenograft tumors; assay: Spontaneous metastasis of VCaP xenografts (Alu-qPCR); assay type: in vivo, mice; conditions: treated 23 d
Protocol: FIGS. 28A-28C show the in vivo effects of RORγ inhibition on tumor metastasis, mouse body weight and organ weight in xenograft models. FIG. 28A: Mice bearing VCaP xenografts as in FIG. 11D, treated with vehicle, SR2211, ENZ or combination for 23 d, were assessed for spontaneous metastasis to the femur (bone marrow) and liver. Genomic DNA isolated from these sites was analyzed for metastasized cells by measuring human Alu sequence (by Alu-qPCR). FIG. 28B: Body weight of mice from different treatment groups. FIG. 28C: Weight of indicated tissues from mice treated with vehicle or SR2211 for 24 days as in FIG. 11A of C4-2B xenograft model. Significance was calculated using Student's t-test, *p=0.01, n=6.

[5] = test system: HER2-positive cells, such as SKBR3 and HCC1954; assay: CellTiter-GLO viability, HER2-positive breast cancer cells; assay type: cell-based, human; conditions: SKBR3 and HCC1954, 4 days
Protocol: as §1
(§2) Using a CellTiter-GLO assay, the viability of cells of different cancer types was measured after treatment with different concentrations of RORγ small molecule inhibitors for 4 days.

[6] = test system: breast cancer cells; assay: CellTiter-GLO viability, breast cancer cells; assay type: cell-based, human; conditions: cells having different major molecular features, 4 days
Protocol: as §1, §2

[7] = test system: MCF-7-TamR cell line; assay: Growth of tamoxifen-resistant breast cancer cells; assay type: cell-based, human; conditions: MCF-7 TamR cells, in combination with tamoxifen
Protocol: as §2

[8] = test system: lung cancer cells; assay: CellTiter-GLO viability, lung cancer cells; assay type: cell-based, human; conditions: NSCLC cells: KRAS mutant (A427, Calu1, A549, H23, H358), BRAF mutant (H1666), EGFR mutant (HCC827, PC-9), Erlotinib-resistant (A427, H1975); 4 days
Protocol: as §1, §2

[9] = test system: OVCAR420, T24, ECC1, HepG2, Hep3B, T98G, SUDHL4, SUDHL6, HCT116 and docetaxel-resistant C4-2B cells; assay: CellTiter-GLO viability, cells of other cancer types; assay type: cell-based, human; conditions: ovarian OVCAR420, bladder T24, endometrial ECC1, liver HepG2 and Hep3B, glioblastoma T98G, DLBCL SUDHL4 and SUDHL6, colon HCT116, docetaxel-resistant C4-2B; 4 days
Protocol: as §1, §2

SMILES: OC(c1ccc(-c2ccc(CN3CCN(Cc4ccncc4)CC3)cc2)c(F)c1)(C(F)(F)F)C(F)(F)F [SR2211, 2-Fluoro-4′-[[4-(4-pyridinylmethyl)-1-piperazinyl]methyl]-a,a-bis (trifluoromethyl)-[1,1′-biphenyl]-4-methanol]
- IC50 [1]: 1500 nM
- inhibition of cell growth and survival in AR-negative cells [2]: not in the AR-negative cells
- tumor growth [3]: effectively stopped the tumor growth
- metastasis to femur bone and liver [4]: strongly inhibited the metastasis to femur bone and liver
- inhibition of HER2-positive cells [5]: relatively strong inhibition
- growth and survival of breast cancer cells [6]: strongly inhibited the growth and survival of breast cancer cells
- sensitization of tamoxifen-resistant breast cancer cells to tamoxifen [7]: able to sensitize tamoxifen-resistant breast cancer cells to tamoxifen; also recorded: sensitized MCF-7 TamR cells to tamoxifen
- growth and survival of lung cancer cells [8]: strongly inhibited the growth and survival of lung cancer cells
- growth and survival of cancer cells of other types [9]: significant inhibition of the growth and survival
